Test results from ChEMBL document CHEMBL5528082 (J Med Chem, 2024).
Values after ≈ are worked out from the molar mass of the structure shown. Active and inactive are the calls of the source. No cut-off for these calls is given here.

Assays:
Dihydrofolate reductase [1] = target: T1, Dihydrofolate reductase (Homo sapiens, UniProt P00374); assay: Inhibition of human DHFR
T1 sequence (P00374 whole entry): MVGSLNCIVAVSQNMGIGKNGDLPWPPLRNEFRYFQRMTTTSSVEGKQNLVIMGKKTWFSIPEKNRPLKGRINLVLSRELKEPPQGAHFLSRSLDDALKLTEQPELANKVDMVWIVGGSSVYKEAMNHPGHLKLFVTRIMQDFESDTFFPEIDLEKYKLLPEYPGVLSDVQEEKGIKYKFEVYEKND

Staphylococcus aureus [2] = assay: Antibacterial activity against Staphylococcus aureus ATCC 25923 incubated for 24 hrs by CLSI based broth microdilution assay; format: functional
Staphylococcus aureus [3] = assay: Antibacterial activity against Staphylococcus aureus USA 300 incubated for 24 hrs by CLSI based broth microdilution assay; format: functional
Staphylococcus aureus [4] = assay: Antibacterial activity against TMP-resistant Staphylococcus aureus BHKS 227 incubated for 24 hrs by CLSI based broth microdilution assay; format: functional
[5] = Cytotoxicity against HEK293 cells assessed as inhibition rate of cell growth at 100 uM incubated for 24 hrs by CCK8 assay relative to control; format: toxicity, cell-based; conditions: human
[6] = Cytotoxicity against human NCM460 cells assessed as inhibition rate of cell growth at 100 uM incubated for 24 hrs by CCK8 assay relative to control; format: toxicity, cell-based
Staphylococcus aureus [7] = assay: Bactericidal activity against Staphylococcus aureus ATCC 25923 assessed as bacterial growth suppression measured for 24 hrs by time kill assay; format: functional, organism-based
[8] = Acute toxicity in C57 mouse assessed as animal death at 800 mg/kg, po measured after 1 week; format: organism-based; conditions: in vivo, 168 h, time 1 weeks
[9] = Acute toxicity in C57 mouse assessed as body weight loss at 400 to 800 mg/kg, po measured for 2 days; format: organism-based; conditions: in vivo, 48 h, dose 400-800 mg/kg, time 2 day
[10] = Acute toxicity in C57 mouse assessed as body weight loss at 400 to 800 mg/kg, po measured for 4 days; format: organism-based; conditions: in vivo, 96 h, dose 400-800 mg/kg, time 4 day
[11] = Acute toxicity in C57 mouse assessed as liver inflammation at 800 mg/kg, po measured after 1 week by biochemical analysis; format: organism-based; conditions: in vivo, 168 h, time 1 weeks
[12] = Acute toxicity in C57 mouse assessed as damage in heart at 800 mg/kg, po measured after 1 week by H and E staining based analysis; format: organism-based; conditions: in vivo, 168 h, time 1 weeks
[13] = Acute toxicity in C57 mouse assessed as damage in liver at 800 mg/kg, po measured after 1 week by H and E staining based analysis; format: organism-based; conditions: in vivo, 168 h, time 1 weeks
[14] = Acute toxicity in C57 mouse assessed as damage in spleen at 800 mg/kg, po measured after 1 week by H and E staining based analysis; format: organism-based; conditions: in vivo, 168 h, time 1 weeks
[15] = Acute toxicity in C57 mouse assessed as damage in kidney at 800 mg/kg, po measured after 1 week by H and E staining based analysis; format: organism-based; conditions: in vivo, 168 h, time 1 weeks
[16] = Metabolic stability in human liver microsomes assessed as half life at 3 uM measured for 120 mins by LC-MS/MS analysis; format: ADME, Microsome; conditions: 2 h
[17] = Metabolic stability in human liver microsomes assessed as clearance rate at 3 uM measured for 120 mins by LC-MS/MS analysis; format: ADME, Microsome; conditions: 2 h
[18] = Metabolic stability in mouse liver microsomes assessed as half life at 3 uM measured for 120 mins by LC-MS/MS analysis; format: ADME, Microsome; conditions: 2 h
[19] = Metabolic stability in mouse liver microsomes assessed as clearance rate at 3 uM measured for 120 mins by LC-MS/MS analysis; format: ADME, Microsome; conditions: 2 h
[20] = Cmax in Sprague-Dawley rat at 5 mg/kg, iv measured for 24 hrs by LC/MS analysis; format: ADME, organism-based; conditions: in vivo
[21] = Clearance in Sprague-Dawley rat at 5 mg/kg, iv measured for 24 hrs by LC/MS analysis; format: ADME, organism-based; conditions: in vivo
[22] = Tmax in Sprague-Dawley rat at 15 mg/kg, po measured for 24 hrs by LC/MS analysis; format: ADME, organism-based; conditions: in vivo
Staphylococcus aureus [23] = assay: Antibacterial activity against methicillin-resistant Staphylococcus aureus ATCC 33591 infected in C57 mouse model assessed as body weight recovery at 2 to 10 mg/kg administered once a day for 3 days consecutively and measured after 24 hrs post-last dose; format: functional, organism-based; conditions: dose 2-10 mg/kg, time 4.0 day
Staphylococcus aureus [24] = assay: Antibacterial activity against methicillin-resistant Staphylococcus aureus ATCC 33591 infected in C57 mouse model assessed as wound healing at 2 to 10 mg/kg administered once a day for 3 days consecutively and measured after 24 hrs post-last dose; format: functional, organism-based; conditions: dose 2-10 mg/kg, time 4.0 day
Staphylococcus aureus [25] = assay: Antibacterial activity against methicillin-resistant Staphylococcus aureus ATCC 33591 infected in C57 mouse model assessed as decrease in skin abscess at 2 to 10 mg/kg administered once a day for 3 days consecutively and measured after 24 hrs post-last dose; format: functional, organism-based; conditions: dose 2-10 mg/kg, time 4.0 day
Staphylococcus aureus [26] = assay: Antibacterial activity against methicillin-resistant Staphylococcus aureus ATCC 33591 infected in C57 mouse model assessed as decrease in pathological change at 2 to 10 mg/kg administered once a day for 3 days consecutively and measured after 24 hrs post-last dose by H and E staining based analysis; format: functional, organism-based; conditions: dose 2-10 mg/kg, time 4.0 day
Mus musculus = assay: Induction of inflammatory cell infiltration in C57 mouse model infected with methicillin-resistant Staphylococcus aureus ATCC 33591 at 2 to 10 mg/kg administered once a day for 3 days consecutively and measured after 24 hrs post-last dose by H and E staining based analysis; format: functional, organism-based; conditions: dose 2-10 mg/kg, time 4.0 day
Dihydrofolate reductase [27] = target: Dihydrofolate reductase (Staphylococcus aureus, UniProt P0A017); assay: Binding affinity to Staphylococcus aureus DHFR expressed in Escherichia coli BL21 (DE3) assessed dissociation constant by ITC analysis
Dihydrofolate reductase (Staphylococcus aureus, UniProt P0A017), sequence (P0A017 whole entry): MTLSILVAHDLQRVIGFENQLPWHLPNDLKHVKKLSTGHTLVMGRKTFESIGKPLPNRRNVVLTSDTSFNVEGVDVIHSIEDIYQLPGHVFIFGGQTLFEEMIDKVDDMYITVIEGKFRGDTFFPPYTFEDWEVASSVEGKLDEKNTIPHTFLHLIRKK

Staphylococcus aureus [28] = assay: Synergistic antibacterial activity against Staphylococcus aureus ATCC 25923 assessed as fractional inhibitory concentration index incubated for 24 hrs in presence of SMX by CLSI based broth microdilution assay; format: functional
Staphylococcus aureus [29] = assay: Synergistic antibacterial activity against Staphylococcus aureus USA 300 assessed as fractional inhibitory concentration index incubated for 24 hrs in presence of SMX by CLSI based broth microdilution assay; format: functional
Staphylococcus aureus [30] = assay: Synergistic antibacterial activity against TMP-resistant Staphylococcus aureus BHKS 227 assessed as fractional inhibitory concentration index incubated for 24 hrs in presence of SMX by CLSI based broth microdilution assay; format: functional
Staphylococcus aureus [31] = assay: Synergistic antibacterial activity against TMP-resistant Staphylococcus aureus BHKS 721 assessed as fractional inhibitory concentration index incubated for 24 hrs in presence of SMX by CLSI based broth microdilution assay; format: functional
Staphylococcus aureus [32] = assay: Synergistic antibacterial activity against TMP-resistant Staphylococcus aureus BHKS 723 assessed as fractional inhibitory concentration index incubated for 24 hrs in presence of SMX by CLSI based broth microdilution assay; format: functional
Staphylococcus aureus [33] = assay: Synergistic antibacterial activity against TMP-resistant Staphylococcus aureus BHKS 231 assessed as fractional inhibitory concentration index incubated for 24 hrs in presence of SMX by CLSI based broth microdilution assay; format: functional
Staphylococcus aureus [34] = assay: Antibacterial activity against TMP-resistant Staphylococcus aureus BHKS 231 incubated for 24 hrs by CLSI based broth microdilution assay; format: functional
[35] = test system: Dihydrofolate reductase (Staphylococcus aureus); conditions: dose 100.0 nM
[36] = target: Dihydrofolate reductase (Staphylococcus aureus) (UniProt P0A017); conditions: dose 10.0 µM, time 10.0 min
Dihydrofolate reductase (Staphylococcus aureus) (UniProt P0A017), sequence (P0A017 2-159 limits assumed): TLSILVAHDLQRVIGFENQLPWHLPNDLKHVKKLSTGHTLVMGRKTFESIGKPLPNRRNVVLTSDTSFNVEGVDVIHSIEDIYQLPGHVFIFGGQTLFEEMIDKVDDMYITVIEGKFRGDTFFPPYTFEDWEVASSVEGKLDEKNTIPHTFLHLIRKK

SMILES: CC(C)c1cc(OCC2CC2)c(I)cc1Oc1cnc(N)nc1N
- IC50 (Dihydrofolate reductase [1]): 4190 nM
- MIC (Staphylococcus aureus [2]): 0.031 µg/mL (≈ 0.0704 µM)
- MIC (Staphylococcus aureus [3]): 0.031 µg/mL (≈ 0.0704 µM)
- MIC (Staphylococcus aureus [4]): 0.5 µg/mL (≈ 1.14 µM)
- inhibition at 24 h, 100 µM [5]: 59.1%
- inhibition at 24 h, 100 µM [6]: 20.2%
- Activity (Staphylococcus aureus [7]): Dose-Dependent Effect
- Activity [8]: Non-Toxic
- Activity [9]: Toxic
- Activity [10]: Non-Toxic
- Activity [11]: Toxic
- Activity [12]: Non-Toxic
- Activity [13]: Non-Toxic
- Activity [14]: Non-Toxic
- Activity [15]: Non-Toxic
- t1/2 [16]: 2.435 h
- CLH [17]: 0.7 µL/min/mg
- t1/2 [18]: 0.437 h
- CLH [19]: 4.1 µL/min/mg
- Cmax [20]: 4060 ng/mL
- clearance [21]: 25 mL/min/kg
- Tmax [22]: 1.33 h
- Activity (Staphylococcus aureus [23]): Active
- Activity (Staphylococcus aureus [24]): Active
- Activity (Staphylococcus aureus [25]): Active
- Activity (Staphylococcus aureus [26]): Active
- Activity (Mus musculus): Active
- Kd (Dihydrofolate reductase [27]): 1540 nM
- fractional inhibitory concentration index (FICI) (Staphylococcus aureus [28]): 0.066
- fractional inhibitory concentration index (FICI) (Staphylococcus aureus [29]): 0.022
- fractional inhibitory concentration index (FICI) (Staphylococcus aureus [30]): 0.27
- fractional inhibitory concentration index (FICI) (Staphylococcus aureus [31]): 0.375
- fractional inhibitory concentration index (FICI) (Staphylococcus aureus [32]): 0.156
- fractional inhibitory concentration index (FICI) (Staphylococcus aureus [33]): 1
- MIC (Staphylococcus aureus [34]): 32 µg/mL (≈ 72.7 µM)
- inhibition [35]: 47.4%
- ΔTm [36]: 18 °C
